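48-hour exposure; five concentrations; linearly interpolated endpoints. Abbreviation: GI50, concentration required for 50% inhibition of growth.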 Calls of active or inactive are those of the source. Cut-off read from the data, not from the text of the source: active = GI50 up to about 1.1 µM and inactive = higher.
Experiments:
Test in all cases: NCI anticancer screen, dose series, 48 h
[1] = test system: 786-0
[2] = test system: A498
[3] = test system: A549
[4] = test system: ACHN
[5] = test system: CCRF-CEM
[6] = test system: COLO 205
[7] = test system: DLD-1
[8] = test system: DMS-114
[9] = test system: DMS-273
[10] = test system: EKVX
[11] = test system: HCC 2998
[12] = test system: HCT-116
[13] = test system: HCT-15
[14] = test system: HL-60
[15] = test system: HOP-18
[16] = test system: HOP-62
[17] = test system: HT-29
[18] = test system: IGROV-1
[19] = test system: K562
[20] = test system: KM-20L2
[21] = test system: KM12
[22] = test system: LOX IMVI
[23] = test system: LXFL 529
[24] = test system: M14
[25] = test system: M19-MEL
[26] = test system: MOLT-4
[27] = test system: Malme-3M
[28] = test system: NCI-H226
[29] = test system: NCI-H23
[30] = test system: NCI-H460
[31] = test system: NCI-H522
[32] = test system: OVCAR-3
[33] = test system: OVCAR-4
[34] = test system: OVCAR-5
[35] = test system: OVCAR-8
[36] = test system: RPMI-8226
[37] = test system: RXF 393
[38] = test system: SF-295
[39] = test system: SF-539
[40] = test system: SK-MEL-28
[41] = test system: SK-MEL-2
[42] = test system: SK-MEL-5
[43] = test system: SK-OV-3
[44] = test system: SN12C
[45] = test system: SNB-19
[46] = test system: SNB-75
[47] = test system: SNB-78
[48] = test system: SR
[49] = test system: SW-620
[50] = test system: TK-10
[51] = test system: U-251
[52] = test system: UACC-257
[53] = test system: UACC-62
[54] = test system: UO-31
[55] = test system: XF498
[56] = test system: CAKI-1
[57] = test system: HOP-92
[58] = test system: SF-268

Structure (SMILES): C1CN2CCN3CCN4CCN1[PH]243
- GI50 [1]: > 100 µM (inactive)
- GI50 [2]: > 100 µM (inactive)
- GI50 [3]: > 100 µM (inactive)
- GI50 [4]: > 100 µM (inactive)
- GI50 [5]: > 100 µM (inactive)
- GI50 [6]: > 100 µM (inactive)
- GI50 [7]: > 100 µM (inactive)
- GI50 [8]: > 100 µM (inactive)
- GI50 [9]: > 100 µM (inactive)
- GI50 [10]: > 100 µM (inactive)
- GI50 [11]: > 100 µM (inactive)
- GI50 [12]: > 100 µM (inactive)
- GI50 [13]: > 100 µM
- GI50 [14]: > 100 µM (inactive)
- GI50 [15]: > 100 µM (inactive)
- GI50 [16]: > 100 µM (inactive)
- GI50 [17]: > 100 µM (inactive)
- GI50 [18]: > 100 µM (inactive)
- GI50 [19]: > 100 µM (inactive)
- GI50 [20]: > 100 µM (inactive)
- GI50 [21]: > 100 µM (inactive)
- GI50 [22]: > 100 µM (inactive)
- GI50 [23]: > 100 µM (inactive)
- GI50 [24]: > 100 µM (inactive)
- GI50 [25]: > 100 µM (inactive)
- GI50 [26]: > 100 µM (inactive)
- GI50 [27]: > 100 µM (inactive)
- GI50 [28]: > 100 µM (inactive)
- GI50 [29]: > 100 µM (inactive)
- GI50 [30]: > 100 µM (inactive)
- GI50 [31]: > 100 µM (inactive)
- GI50 [32]: > 100 µM (inactive)
- GI50 [33]: > 100 µM (inactive)
- GI50 [34]: > 100 µM (inactive)
- GI50 [35]: > 100 µM (inactive)
- GI50 [36]: > 100 µM (inactive)
- GI50 [37]: > 100 µM (inactive)
- GI50 [38]: > 100 µM (inactive)
- GI50 [39]: > 100 µM (inactive)
- GI50 [40]: > 100 µM (inactive)
- GI50 [41]: > 100 µM (inactive)
- GI50 [42]: > 100 µM (inactive)
- GI50 [43]: > 100 µM (inactive)
- GI50 [44]: > 100 µM (inactive)
- GI50 [45]: > 100 µM (inactive)
- GI50 [46]: > 100 µM (inactive)
- GI50 [47]: > 100 µM (inactive)
- GI50 [48]: > 100 µM (inactive)
- GI50 [49]: > 100 µM (inactive)
- GI50 [50]: > 100 µM (inactive)
- GI50 [51]: > 100 µM (inactive)
- GI50 [52]: > 100 µM (inactive)
- GI50 [53]: > 100 µM (inactive)
- GI50 [54]: > 100 µM (inactive)
- GI50 [55]: > 100 µM (inactive)

Structure (SMILES): Cn1cnc2nc(Cl)nc(NC(C)(C)C(C)(C)O)c21
- GI50 [1]: > 100 µM (inactive)
- GI50 [2]: > 100 µM (inactive)
- GI50 [3]: > 100 µM (inactive)
- GI50 [4]: > 100 µM (inactive)
- GI50 [56]: > 100 µM (inactive)
- GI50 [5]: > 100 µM (inactive)
- GI50 [6]: > 100 µM (inactive)
- GI50 [7]: > 100 µM (inactive)
- GI50 [8]: > 100 µM (inactive)
- GI50 [9]: > 100 µM (inactive)
- GI50 [10]: > 100 µM (inactive)
- GI50 [11]: > 100 µM (inactive)
- GI50 [12]: > 100 µM (inactive)
- GI50 [13]: > 100 µM
- GI50 [14]: > 100 µM (inactive)
- GI50 [15]: > 100 µM (inactive)
- GI50 [16]: > 100 µM (inactive)
- GI50 [57]: > 100 µM (inactive)
- GI50 [17]: > 100 µM (inactive)
- GI50 [18]: > 100 µM (inactive)
- GI50 [19]: > 100 µM (inactive)
- GI50 [20]: > 100 µM (inactive)
- GI50 [21]: > 100 µM (inactive)
- GI50 [24]: > 100 µM (inactive)
- GI50 [26]: > 100 µM (inactive)
- GI50 [27]: > 100 µM (inactive)
- GI50 [28]: > 100 µM (inactive)
- GI50 [29]: > 100 µM (inactive)
- GI50 [30]: > 100 µM (inactive)
- GI50 [31]: 72.4 µM (inactive)
- GI50 [32]: > 100 µM (inactive)
- GI50 [33]: > 100 µM (inactive)
- GI50 [34]: > 100 µM (inactive)
- GI50 [35]: > 100 µM (inactive)
- GI50 [36]: > 100 µM (inactive)
- GI50 [37]: > 100 µM (inactive)
- GI50 [58]: > 100 µM (inactive)
- GI50 [38]: > 100 µM (inactive)
- GI50 [39]: > 100 µM (inactive)
- GI50 [41]: > 100 µM (inactive)
- GI50 [42]: > 100 µM (inactive)
- GI50 [43]: > 100 µM (inactive)
- GI50 [44]: > 100 µM (inactive)
- GI50 [45]: > 100 µM (inactive)
- GI50 [46]: > 100 µM (inactive)
- GI50 [47]: > 100 µM (inactive)
- GI50 [48]: > 100 µM (inactive)
- GI50 [49]: > 100 µM (inactive)
- GI50 [50]: > 100 µM (inactive)
- GI50 [51]: > 100 µM (inactive)
- GI50 [52]: > 100 µM (inactive)
- GI50 [53]: > 100 µM (inactive)
- GI50 [54]: > 100 µM (inactive)
- GI50 [55]: > 100 µM (inactive)

— ChEMBL document CHEMBL1201862, “PubChem BioAssay data set” (2004)
